Measurements published in patent publication US20250114338A1, “TETRAHYDRO-PYRIDO[3,4-b]INDOLE ESTROGEN RECEPTOR MODULATORS AND USES THEREOF” (Genentech, Inc., priority 2014, published 2025).

System: ER-alpha MCF7
Test: ER-alpha MCF7 HCS EC50; stated as measured by in vitro cell proliferation assays of Examples 902 and 903
Type: cell-based
Details: Homo sapiens, MCF7, MCF7 cells; Table 2
Outline: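 MCF7 cells seeded 1000-2000 cells/well for 16 h, then treated with nine-point 1:2 DMSO dilution series in quadruplicate at 37 °C, 5% CO2 for 4 days. Viable cells quantified by CellTiter-Glo ATP luminescence; EC50 calculated. Controls: fulvestrant at final 100 nM, DMSO 0.2% v/v.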

Row | EC50 | SMILES
1 | 1.8 nM | CC1(C)Cc2c([nH]c3ccccc23)[C@H](c2c(F)cc(NC3CN(CCCF)C3)cc2F)N1CC(F)F [Example 406, (S)-N-(4-(2-(2,2-difluoroethyl)-3,3-dimethyl-2,3,4,9-tetrahydro-1H-pyrido[3,4-b]indol-1-yl)-3,5-difluorophenyl)-1-(3-fluoropropyl)azetidin-3-amine]
2 | 0.12 nM | C[C@@H]1Cc2c([nH]c3cccc(F)c23)[C@@H](c2c(F)cc(NC3CN(CCCF)C3)cc2F)N1CC(F)(F)F [Example 407, N-(3,5-difluoro-4-((1R,3R)-5-fluoro-3-methyl-2-(2,2,2-trifluoroethyl)-2,3,4,9-tetrahydro-1H-pyrido[3,4-b]indol-1-yl)phenyl)-1-(3-fluoropropyl)azetidin-3-amine]
3 | 6.3 nM | C[C@H]1Cc2c([nH]c3cccc(F)c23)[C@H](c2c(F)cc(NC3CN(CCCF)C3)cc2F)N1CC(F)(F)F [Example 408, N-(3,5-difluoro-4-((1S,3S)-5-fluoro-3-methyl-2-(2,2,2-trifluoroethyl)-2,3,4,9-tetrahydro-1H-pyrido[3,4-b]indol-1-yl)phenyl)-1-(3-fluoropropyl)azetidin-3-amine]
4 | 26 nM | C[C@H]1Cc2c([nH]c3c(F)cccc23)[C@H](c2c(F)cc(NC3CN(CCCF)C3)cc2F)N1CC(F)(F)F [Example 409, N-(3,5-difluoro-4-((1S,3S)-8-fluoro-3-methyl-2-(2,2,2-trifluoroethyl)-2,3,4,9-tetrahydro-1H-pyrido[3,4-b]indol-1-yl)phenyl)-1-(3-fluoropropyl)azetidin-3-amine]
5 | 0.12 nM | C[C@@H]1Cc2c([nH]c3c(F)cccc23)[C@@H](c2c(F)cc(NC3CN(CCCF)C3)cc2F)N1CC(F)(F)F [Example 410, N-(3,5-difluoro-4-((1R,3R)-8-fluoro-3-methyl-2-(2,2,2-trifluoroethyl)-2,3,4,9-tetrahydro-1H-pyrido[3,4-b]indol-1-yl)phenyl)-1-(3-fluoropropyl)azetidin-3-amine]
6 | 0.07 nM | C[C@@H]1Cc2c([nH]c3ccccc23)[C@@H](c2c(F)cc(OC3CN(CCCF)C3)cc2F)N1CC1(F)COC1 [Example 411, (1R,3R)-1-(2,6-difluoro-4-(1-(3-fluoropropyl)azetidin-3-yloxy)phenyl)-2-((3-fluorooxetan-3-yl)methyl)-3-methyl-2,3,4,9-tetrahydro-1H-pyrido[3,4-b]indole]
7 | 1.3 nM | C[C@H]1Cc2c([nH]c3cc(F)ccc23)[C@H](c2c(F)cc(NC3CN(CCCF)C3)cc2F)N1C[C@](C)(F)CO [Example 412, (S)-3-((1S,3S)-1-(2,6-difluoro-4-((1-(3-fluoropropyl)azetidin-3-yl)amino)phenyl)-7-fluoro-3-methyl-3,4-dihydro-1H-pyrido[3,4-b]indol-2(9H)-yl)-2-fluoro-2-methylpropan-1-ol]
8 | 0.018 nM | C[C@@H]1Cc2c([nH]c3cc(F)ccc23)[C@@H](c2c(F)cc(NC3CN(CCCF)C3)cc2F)N1C[C@@](C)(F)CO [Example 413, (R)-3-((1R,3R)-1-(2,6-difluoro-4-((1-(3-fluoropropyl)azetidin-3-yl)amino)phenyl)-7-fluoro-3-methyl-3,4-dihydro-1H-pyrido[3,4-b]indol-2(9H)-yl)-2-fluoro-2-methylpropan-1-ol]
9 | 0.12 nM | C[C@@H]1Cc2c([nH]c3cc(F)ccc23)[C@@H](c2c(F)cc(NC3CN(CCCF)C3)cc2F)N1C[C@](C)(F)CO [Example 414, (S)-3-((1R,3R)-1-(2,6-difluoro-4-((1-(3-fluoropropyl)azetidin-3-yl)amino)phenyl)-7-fluoro-3-methyl-3,4-dihydro-1H-pyrido[3,4-b]indol-2(9H)-yl)-2-fluoro-2-methylpropan-1-ol]
10 | 9.5 nM | C[C@H]1Cc2c([nH]c3cc(F)ccc23)[C@H](c2c(F)cc(NC3CN(CCCF)C3)cc2F)N1C[C@@](C)(F)CO [Example 415, (R)-3-((1S,3S)-1-(2,6-difluoro-4-((1-(3-fluoropropyl)azetidin-3-yl)amino)phenyl)-7-fluoro-3-methyl-3,4-dihydro-1H-pyrido[3,4-b]indol-2(9H)-yl)-2-fluoro-2-methylpropan-1-ol]
11 | 0.024 nM | C[C@@H]1Cc2c([nH]c3cccc(F)c23)[C@@H](c2c(F)cc(NC3CN(CCCF)C3)cc2F)N1CC(F)(F)CO [Example 416, 3-((1R,3R)-1-(2,6-difluoro-4-((1-(3-fluoropropyl)azetidin-3-yl)amino)phenyl)-5-fluoro-3-methyl-3,4-dihydro-1H-pyrido[3,4-b]indol-2(9H)-yl)-2,2-difluoropropan-1-ol]
12 | 3.3 nM | C[C@H]1Cc2c([nH]c3cccc(F)c23)[C@H](c2c(F)cc(NC3CN(CCCF)C3)cc2F)N1CC(F)(F)CO [Example 417, 3-((1S,3S)-1-(2,6-difluoro-4-((1-(3-fluoropropyl)azetidin-3-yl)amino)phenyl)-5-fluoro-3-methyl-3,4-dihydro-1H-pyrido[3,4-b]indol-2(9H)-yl)-2,2-difluoropropan-1-ol]
13 | 0.033 nM | C[C@@H]1Cc2c([nH]c3ccccc23)[C@@H](c2c(F)cc(NC3CN(CCCF)C3)cc2F)N1C[C@@](F)(C#N)CO [Example 418, (R)-3-((1R,3R)-1-(2,6-difluoro-4-((1-(3-fluoropropyl)azetidin-3-yl)amino)phenyl)-3-methyl-3,4-dihydro-1H-pyrido[3,4-b]indol-2(9H)-yl)-2-fluoro-2-(hydroxymethyl) propanenitrile]
14 | 0.026 nM | C[C@@H]1Cc2c([nH]c3ccccc23)[C@@H](c2c(F)cc(NC3CN(CCCF)C3)cc2F)N1C[C@](F)(C#N)CO [Example 419, (S)-3-((1R,3R)-1-(2,6-difluoro-4-((1-(3-fluoropropyl)azetidin-3-yl)amino)phenyl)-3-methyl-3,4-dihydro-1H-pyrido[3,4-b]indol-2(9H)-yl)-2-fluoro-2-(hydroxymethyl) propanenitrile]
15 | 0.117 nM | CC1(C)Cc2c([nH]c3ccccc23)[C@@H](c2c(F)cc(NC3CN(CCCF)C3)cc2F)N1CC(F)(F)CO [Example 420, (R)-3-(1-(2,6-difluoro-4-((1-(3-fluoropropyl)azetidin-3-yl)amino)phenyl)-3,3-dimethyl-3,4-dihydro-1H-pyrido[3,4-b]indol-2(9H)-yl)-2,2-difluoropropan-1-ol]
16 | 0.146 nM | CC1(C)Cc2c([nH]c3ccccc23)[C@H](c2c(F)cc(NC3CN(CCCF)C3)cc2F)N1CC(F)(F)CO [Example 421, (S)-3-(1-(2,6-difluoro-4-((1-(3-fluoropropyl)azetidin-3-yl)amino)phenyl)-3,3-dimethyl-3,4-dihydro-1H-pyrido[3,4-b]indol-2(9H)-yl)-2,2-difluoropropan-1-ol]
17 | 37.1 nM | C[C@H]1Cc2c([nH]c3c(F)cccc23)[C@H](c2c(F)cc(NC3CN(CCCF)C3)cc2F)N1CC(F)(F)CO [Example 422, 3-((1S,3S)-1-(2,6-difluoro-4-((1-(3-fluoropropyl)azetidin-3-yl)amino)phenyl)-8-fluoro-3-methyl-3,4-dihydro-1H-pyrido[3,4-b]indol-2(9H)-yl)-2,2-difluoropropan-1-ol]
18 | 0.089 nM | C[C@@H]1Cc2c([nH]c3c(F)cccc23)[C@@H](c2c(F)cc(NC3CN(CCCF)C3)cc2F)N1CC(F)(F)CO [Example 423, 3-((1R,3R)-1-(2,6-difluoro-4-((1-(3-fluoropropyl)azetidin-3-yl)amino)phenyl)-8-fluoro-3-methyl-3,4-dihydro-1H-pyrido[3,4-b]indol-2(9H)-yl)-2,2-difluoropropan-1-ol]
19 | 0.5 nM | C[C@@H]1Cc2c([nH]c3c(F)cc(F)cc23)[C@@H](c2c(F)cc(OC3CN(CCCF)C3)cc2F)N1CC(C)(C)F [Example 424, (1R,3R)-1-(2,6-difluoro-4-(1-(3-fluoropropyl)azetidin-3-yloxy)phenyl)-6,8-difluoro-2-(2-fluoro-2-methylpropyl)-3-methyl-2,3,4,9-tetrahydro-1H-pyrido[3,4-b]indole]
20 | 0.021 nM | C[C@@H]1Cc2c([nH]c3cc(F)ccc23)[C@@H](c2c(F)cc(NC3CN(CCCF)C3)cc2F)N1CC(F)(F)CO [Example 425, 3-((1R,3R)-1-(2,6-difluoro-4-((1-(3-fluoropropyl)azetidin-3-yl)amino)phenyl)-7-fluoro-3-methyl-3,4-dihydro-1H-pyrido[3,4-b]indol-2(9H)-yl)-2,2-difluoropropan-1-ol]
21 | 6.38 nM | C[C@H]1Cc2c([nH]c3cc(F)ccc23)[C@H](c2c(F)cc(NC3CN(CCCF)C3)cc2F)N1CC(F)(F)CO [Example 426, 3-((1S,3S)-1-(2,6-difluoro-4-((1-(3-fluoropropyl)azetidin-3-yl)amino)phenyl)-7-fluoro-3-methyl-3,4-dihydro-1H-pyrido[3,4-b]indol-2(9H)-yl)-2,2-difluoropropan-1-ol]
22 | 0.278 nM | C[C@@H]1Cc2c([nH]c3ccccc23)[C@@H](c2c(F)cc(OC3CN(CC4(CF)CC4)C3)cc2F)N1CC(C)(C)F [Example 427, (1R,3R)-1-(2,6-difluoro-4-((1-((1-(fluoromethyl)cyclopropyl)methyl)azetidin-3-yl)oxy)phenyl)-2-(2-fluoro-2-methylpropyl)-3-methyl-2,3,4,9-tetrahydro-1H-pyrido[3,4-b]indole]
23 | 0.7 nM | C[C@@H]1Cc2c([nH]c3cc(F)c(F)cc23)[C@@H](c2c(F)cc(OC3CN(CCCF)C3)cc2F)N1CC(C)(C)F [Example 428, (1R,3R)-1-(2,6-difluoro-4-(1-(3-fluoropropyl)azetidin-3-yloxy)phenyl)-6,7-difluoro-2-(2-fluoro-2-methylpropyl)-3-methyl-2,3,4,9-tetrahydro-1H-pyrido[3,4-b]indole]
24 | 0.99 nM | C[C@@H]1Cc2c([nH]c3ccccc23)[C@@H](c2cnn(CC3CN(CCCF)C3)c2)N1CC(C)(C)F [Example 429, (1R,3R)-2-(2-fluoro-2-methylpropyl)-1-(1-((1-(3-fluoropropyl)azetidin-3-yl)methyl)-1H-pyrazol-4-yl)-3-methyl-2,3,4,9-tetrahydro-1H-pyrido[3,4-b]indole]
